Patent publication US12344606B2, “Next-generation modulators of stimulator of interferon genes (STING)” (RYVU THERAPEUTICS S.A., priority 2019, dated 2025)

Legend:
human STING = human STING (Homo sapiens, UniProt Q86WV6); experiment: Fluorescence Thermal Shift assay (hSTING FTS binding assay); settings: STING 0.1 mg/ml, 20 min preincubation, SyproOrange
Method in brief: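 STING protein (final 0.1 mg/ml) preincubated 20 min with compound in 50 mM Hepes, 150 mM NaCl, pH 7.5, then SyproOrange dye added. Thermal unfolding monitored by fluorescence from 25 to 99° C. at a continuous ramp of 0.033° C./s.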

[1] = test system: interferon regulatory factor (IRF) pathway in THP-1 dual cells; experiment: THP-1 Dual reporter assay, IRF pathway (luciferase); type: cell-based; settings: Homo sapiens, THP1-Dual; 18 h stimulation, luminescence
Method in brief: (§1)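 THP-1 dual reporter cells stimulated 18 h with STING agonist; culture medium then sampled. IRF activity read as ISG54/ISRE-driven luciferase luminescence; NF-κB activity read as SEAP absorbance at 630 nm (or 655 nm) after 2 h (or 1 h) at 37° C with detection medium.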

[2] = test system: NF-κB pathway in THP-1 dual cells; experiment: THP-1 Dual reporter assay, NF-κB pathway (SEAP); type: cell-based; settings: Homo sapiens, THP1-Dual; 18 h stimulation, absorbance; read-out: THP1 Dual EC50 (μM) NFkB
Method in brief: as §1

[3] = test system: CT26 murine colon carcinoma allografts; experiment: In vivo anti-tumor efficacy in CT26 allografts; set-up: species or system female Balb/C mice; settings: for efficacy of dose: once every fifth day x3, 10% Captisol in PBS
Method: The efficacy of Example 1 was evaluated in established CT26 murine colon carcinoma allografts in female Balb/C mice. Example 1 was formulated in 10% Captisol in PBS and administered intravenously, once every fifth day on three occasions. The solution was prepared fresh prior to each administration. […] In both treatment groups tumor growth delay was observed when compared to the control group. By the end of the study, on day 42, there were 3 and 6 complete responses recorded for mice treated at 2 and 3 mg/kg E5Dx3, respectively.

CT26 cells = experiment: CT26 re-challenge study of mice with complete responses; type: in vivo, Balb/C mice
Method: Mice with complete responses were subjected to a re-challenge study. CT26 cells were injected into the flank opposite to an original site of inoculation. Naïve mice were included into the re-challenge study as a control of the tumor growth kinetics.

Sequence of human STING (Q86WV6 whole entry H232R): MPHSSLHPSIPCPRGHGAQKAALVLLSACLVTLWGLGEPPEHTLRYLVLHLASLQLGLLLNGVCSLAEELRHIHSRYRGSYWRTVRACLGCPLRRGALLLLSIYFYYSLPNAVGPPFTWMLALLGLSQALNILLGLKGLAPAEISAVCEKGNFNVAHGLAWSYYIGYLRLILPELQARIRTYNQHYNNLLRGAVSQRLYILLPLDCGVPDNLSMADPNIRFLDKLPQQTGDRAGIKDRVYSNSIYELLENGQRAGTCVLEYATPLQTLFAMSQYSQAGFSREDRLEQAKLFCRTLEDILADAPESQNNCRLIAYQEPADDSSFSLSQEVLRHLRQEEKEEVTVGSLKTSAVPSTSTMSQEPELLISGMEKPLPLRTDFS

Row | hSTING FTS binding assay (ΔT C.°) (human STING) | EC50 [1] [µM] | EC50 [2] [µM] | SMILES | TGI (tumor growth inhibition) ([3]; 2 mg/kg E5Dx3, 11th day) [%] | complete responses (number of mice) ([3]; 2 mg/kg E5Dx3, day 42) | efficacy of dose ([3]; 2 mg/kg i.v.) | TGI (tumor growth inhibition) ([3]; 3 mg/kg E5Dx3, 11th day) [%] | complete responses (number of mice) ([3]; 3 mg/kg E5Dx3, day 42) | efficacy of dose ([3]; 3 mg/kg i.v.) | mice that developed tumors on re-challenge (CT26 cells; six mice with complete responses dosed previously at 3 mg/kg, substantial delay in tumor growth) | mice that developed tumors on re-challenge (CT26 cells; three mice with complete responses dosed previously at 2 mg/kg)
1 | ++ (ΔTm>10° C.) | ≤ 1 | ≤ 1 | COc1cc(CN(Cc2cn(C)c3ccccc3c2=O)[C@H]2CCCN(c3cccnc3)C2)ccn1 [Example 1, 3-({[(2-methoxypyridin-4-yl)methyl][(3S)-1-(pyridin-3-yl)piperidin-3-yl]amino}methyl)-1-methyl-1,4-dihydroquinolin-4-one] | 52 | 3 | moderately efficacious dose | 80 | 6 | full efficacious dose | two of them developed a tumor | none of them developed tumors
2 | ++ (ΔTm>10° C.) | ≤ 1 | ≤ 1 | Cc1cc(CN(Cc2cn(C)c3ccccc3c2=O)[C@H]2CCCN(c3cccnc3)C2)ccn1 [Example 5, 1-methyl-3-({[(2-methylpyridin-4-yl)methyl][(3S)-1-(pyridin-3-yl)piperidin-3-yl]amino}methyl)-1,4-dihydroquinolin-4-one] |  |  |  |  |  |  |  | 
3 | + (ΔTm<10° C.) | ≥ 10 | ≥ 10 | Cc1cc(CN(Cc2cn(C)c3ccccc3c2=O)[C@H]2CCCN(c3ccn(C)c(=O)c3)C2)ccn1 [Example 41, 1-methyl-3-({[(3S)-1-(1-methyl-2-oxo-1,2-dihydropyridin-4-yl)piperidin-3-yl][(2-methylpyridin-4-yl)methyl]amino}methyl)-1,4-dihydroquinolin-4-one] |  |  |  |  |  |  |  | 
